Measurements from article PMC12136037, “Type II kinase inhibitors that target Parkinson’s disease–associated LRRK2” (Science Advances, 2025).

Key:
Experiment in all cases: 33PanQinase kinome-wide selectivity profile (Reaction Biology)
Assay type in all cases: biochemical
350 wild-type kinases [1] = target: T1, 350 wild-type kinases (Homo sapiens, UniProt Q8IU85); conditions: kinase CAMK1D, ATP 0,3 µM, singlicate
T1 construct: purchased Reaction Biology (assay service)
Experimental: (§1) Compound RN341 was tested at two concentrations of 1 and 10 μM against a panel of 350 wild-type kinases in the ^33PanQinase assay. The assay was performed by Reaction Biology (www.reactionbiology.com/services/kinase-assays/kinase-panel-screening/).

350 wild-type kinases [2] = target: T2, 350 wild-type kinases (Homo sapiens, UniProt P42684); conditions: kinase ABL2, ATP 0,3 µM, singlicate
T2 construct: purchased Reaction Biology (assay service)
Experimental: as §1

350 wild-type kinases [3] = target: T3, 350 wild-type kinases (Homo sapiens, UniProt O14578); conditions: kinase CIT 1-450, ATP 0,1 µM, singlicate
T3 construct: purchased Reaction Biology (assay service)
Experimental: as §1

350 wild-type kinases [4] = target: T4, 350 wild-type kinases (Homo sapiens, UniProt P37023); conditions: kinase ACVRL1, ATP 1 µM, singlicate
T4 construct: purchased Reaction Biology (assay service)
Experimental: as §1

350 wild-type kinases [5] = target: T5, 350 wild-type kinases (Homo sapiens, UniProt Q8N568); conditions: kinase DCAMKL2, ATP 1 µM, singlicate
T5 construct: purchased Reaction Biology (assay service)
Experimental: as §1

350 wild-type kinases [6] = target: T6, 350 wild-type kinases (Homo sapiens, UniProt Q04771); conditions: kinase ACVR1, ATP 3 µM, singlicate
T6 construct: purchased Reaction Biology (assay service)
Experimental: as §1

350 wild-type kinases [7] = target: T7, 350 wild-type kinases (Homo sapiens, UniProt Q9Y5S2); conditions: kinase CDC42BPB, ATP 0,1 µM, singlicate
T7 construct: purchased Reaction Biology (assay service)
Experimental: as §1

350 wild-type kinases [8] = target: T8, 350 wild-type kinases (Homo sapiens, UniProt Q99683); conditions: kinase ASK1, ATP 3 µM, singlicate
T8 construct: purchased Reaction Biology (assay service)
Experimental: as §1

350 wild-type kinases [9] = target: T9, 350 wild-type kinases (Homo sapiens, UniProt Q5S007); conditions: 1 and 10 μM; authors think kinase was inactive in panel
T9 construct: purchased Reaction Biology (assay service)
Experimental: as §1

350 wild-type kinases [10] = target: T10, 350 wild-type kinases (Homo sapiens, UniProt Q9HAZ1); conditions: kinase CLK4, ATP 0,1 µM, singlicate
T10 construct: purchased Reaction Biology (assay service)
Experimental: as §1

350 wild-type kinases [11] = target: T11, 350 wild-type kinases (Homo sapiens, UniProt P51451); conditions: kinase BLK, ATP 0,3 µM, singlicate
T11 construct: purchased Reaction Biology (assay service)
Experimental: as §1

350 wild-type kinases [12] = target: T12, 350 wild-type kinases (Homo sapiens, UniProt P41279); conditions: kinase COT, ATP 0,3 µM, singlicate
T12 construct: purchased Reaction Biology (assay service)
Experimental: as §1

350 wild-type kinases [13] = target: T13, 350 wild-type kinases (Homo sapiens, UniProt P21127); conditions: kinase CDK11B/CycK, ATP 0,1 µM, singlicate
T13 construct: purchased Reaction Biology (assay service)
Experimental: as §1

350 wild-type kinases [14] = target: T14, 350 wild-type kinases (Homo sapiens, UniProt P48729); conditions: kinase CK1alpha1, ATP 0,3 µM, singlicate
T14 construct: purchased Reaction Biology (assay service)
Experimental: as §1

350 wild-type kinases [15] = target: T15, 350 wild-type kinases (Homo sapiens, UniProt P31749); conditions: kinase AKT1, ATP 1 µM, singlicate
T15 construct: purchased Reaction Biology (assay service)
Experimental: as §1

350 wild-type kinases [16] = target: T16, 350 wild-type kinases (Homo sapiens, UniProt Q13557); conditions: kinase CAMK2D, ATP 1 µM, singlicate
T16 construct: purchased Reaction Biology (assay service)
Experimental: as §1

350 wild-type kinases [17] = target: T17, 350 wild-type kinases (Homo sapiens, UniProt P78527); conditions: kinase DNAPK, ATP 1 µM, singlicate
T17 construct: purchased Reaction Biology (assay service)
Experimental: as §1

350 wild-type kinases [18] = target: T18, 350 wild-type kinases (Homo sapiens, UniProt P50750); conditions: singlicate; for Residual activity (% of control), CDK9/CycK: kinase CDK9/CycK, ATP 1 µM; for Residual activity (% of control), CDK9/CycT1: kinase CDK9/CycT1, ATP 0,3 µM
T18 construct: purchased Reaction Biology (assay service)
Experimental: as §1

350 wild-type kinases [19] = target: T19, 350 wild-type kinases (Homo sapiens, UniProt P00519); conditions: kinase ABL1, ATP 0,3 µM, singlicate
T19 construct: purchased Reaction Biology (assay service)
Experimental: as §1

350 wild-type kinases [20] = target: T20, 350 wild-type kinases (Homo sapiens, UniProt P06493); conditions: singlicate; for Residual activity (% of control), CDK1/CycA2: kinase CDK1/CycA2, ATP 0,3 µM; for Residual activity (% of control), CDK1/CycB1: kinase CDK1/CycB1; for Residual activity (% of control), CDK1/CycB1 / Residual activity (% of control), CDK1/CycE1: ATP 1 µM; for Residual activity (% of control), CDK1/CycE1: kinase CDK1/CycE1
T20 construct: purchased Reaction Biology (assay service)
Experimental: as §1

350 wild-type kinases [21] = target: T21, 350 wild-type kinases (Homo sapiens, UniProt Q96Q40); conditions: singlicate; for Residual activity (% of control), CDK15/CycA2: kinase CDK15/CycA2, ATP 1 µM; for Residual activity (% of control), CDK15/CycB1: kinase CDK15/CycB1, ATP 0,3 µM
T21 construct: purchased Reaction Biology (assay service)
Experimental: as §1

350 wild-type kinases [22] = target: T22, 350 wild-type kinases (Homo sapiens, UniProt Q15131); conditions: kinase CDK10/CycQ, ATP 3 µM, singlicate
T22 construct: purchased Reaction Biology (assay service)
Experimental: as §1

350 wild-type kinases [23] = target: T23, 350 wild-type kinases (Homo sapiens, UniProt Q13882); conditions: kinase BRK, ATP 3 µM, singlicate
T23 construct: purchased Reaction Biology (assay service)
Experimental: as §1

T21 sequence (Q96Q40 whole entry): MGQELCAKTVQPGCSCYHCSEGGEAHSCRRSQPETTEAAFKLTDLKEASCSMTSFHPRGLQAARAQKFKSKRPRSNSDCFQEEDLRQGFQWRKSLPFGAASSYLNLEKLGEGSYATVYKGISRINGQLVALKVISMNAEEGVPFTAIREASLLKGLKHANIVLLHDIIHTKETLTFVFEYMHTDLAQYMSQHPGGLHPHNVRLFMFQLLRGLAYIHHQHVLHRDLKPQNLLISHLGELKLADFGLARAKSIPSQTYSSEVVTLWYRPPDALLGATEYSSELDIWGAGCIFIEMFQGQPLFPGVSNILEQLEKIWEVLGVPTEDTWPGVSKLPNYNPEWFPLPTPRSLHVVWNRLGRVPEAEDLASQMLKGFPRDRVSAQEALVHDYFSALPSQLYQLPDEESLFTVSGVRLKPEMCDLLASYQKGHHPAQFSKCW
T20 sequence (P06493 whole entry): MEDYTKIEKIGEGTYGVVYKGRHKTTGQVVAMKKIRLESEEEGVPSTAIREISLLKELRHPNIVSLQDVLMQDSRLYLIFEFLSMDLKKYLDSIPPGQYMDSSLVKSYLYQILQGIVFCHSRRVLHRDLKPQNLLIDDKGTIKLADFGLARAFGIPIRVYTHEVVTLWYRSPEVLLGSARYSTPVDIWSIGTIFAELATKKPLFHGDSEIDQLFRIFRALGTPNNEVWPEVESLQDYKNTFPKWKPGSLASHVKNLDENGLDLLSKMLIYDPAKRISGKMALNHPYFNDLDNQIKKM
T18 sequence (P50750 whole entry): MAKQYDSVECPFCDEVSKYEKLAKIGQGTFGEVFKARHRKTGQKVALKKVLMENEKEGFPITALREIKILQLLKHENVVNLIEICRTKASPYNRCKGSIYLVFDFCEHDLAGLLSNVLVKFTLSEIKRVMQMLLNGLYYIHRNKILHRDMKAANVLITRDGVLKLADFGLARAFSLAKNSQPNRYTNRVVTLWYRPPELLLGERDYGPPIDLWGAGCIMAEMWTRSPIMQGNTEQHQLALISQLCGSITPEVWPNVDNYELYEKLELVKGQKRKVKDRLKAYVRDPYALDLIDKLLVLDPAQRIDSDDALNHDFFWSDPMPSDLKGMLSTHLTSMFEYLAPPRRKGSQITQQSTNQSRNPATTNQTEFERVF
T14 sequence (P48729 whole entry): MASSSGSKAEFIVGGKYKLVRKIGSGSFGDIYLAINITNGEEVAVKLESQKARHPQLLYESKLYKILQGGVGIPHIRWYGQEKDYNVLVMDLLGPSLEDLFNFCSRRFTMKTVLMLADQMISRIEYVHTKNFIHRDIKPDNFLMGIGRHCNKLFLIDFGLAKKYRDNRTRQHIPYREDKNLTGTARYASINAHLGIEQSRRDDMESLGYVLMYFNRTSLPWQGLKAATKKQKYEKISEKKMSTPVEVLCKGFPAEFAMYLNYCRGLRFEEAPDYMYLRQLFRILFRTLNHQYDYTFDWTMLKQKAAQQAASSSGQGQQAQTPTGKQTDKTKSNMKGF
T8 sequence (Q99683 whole entry): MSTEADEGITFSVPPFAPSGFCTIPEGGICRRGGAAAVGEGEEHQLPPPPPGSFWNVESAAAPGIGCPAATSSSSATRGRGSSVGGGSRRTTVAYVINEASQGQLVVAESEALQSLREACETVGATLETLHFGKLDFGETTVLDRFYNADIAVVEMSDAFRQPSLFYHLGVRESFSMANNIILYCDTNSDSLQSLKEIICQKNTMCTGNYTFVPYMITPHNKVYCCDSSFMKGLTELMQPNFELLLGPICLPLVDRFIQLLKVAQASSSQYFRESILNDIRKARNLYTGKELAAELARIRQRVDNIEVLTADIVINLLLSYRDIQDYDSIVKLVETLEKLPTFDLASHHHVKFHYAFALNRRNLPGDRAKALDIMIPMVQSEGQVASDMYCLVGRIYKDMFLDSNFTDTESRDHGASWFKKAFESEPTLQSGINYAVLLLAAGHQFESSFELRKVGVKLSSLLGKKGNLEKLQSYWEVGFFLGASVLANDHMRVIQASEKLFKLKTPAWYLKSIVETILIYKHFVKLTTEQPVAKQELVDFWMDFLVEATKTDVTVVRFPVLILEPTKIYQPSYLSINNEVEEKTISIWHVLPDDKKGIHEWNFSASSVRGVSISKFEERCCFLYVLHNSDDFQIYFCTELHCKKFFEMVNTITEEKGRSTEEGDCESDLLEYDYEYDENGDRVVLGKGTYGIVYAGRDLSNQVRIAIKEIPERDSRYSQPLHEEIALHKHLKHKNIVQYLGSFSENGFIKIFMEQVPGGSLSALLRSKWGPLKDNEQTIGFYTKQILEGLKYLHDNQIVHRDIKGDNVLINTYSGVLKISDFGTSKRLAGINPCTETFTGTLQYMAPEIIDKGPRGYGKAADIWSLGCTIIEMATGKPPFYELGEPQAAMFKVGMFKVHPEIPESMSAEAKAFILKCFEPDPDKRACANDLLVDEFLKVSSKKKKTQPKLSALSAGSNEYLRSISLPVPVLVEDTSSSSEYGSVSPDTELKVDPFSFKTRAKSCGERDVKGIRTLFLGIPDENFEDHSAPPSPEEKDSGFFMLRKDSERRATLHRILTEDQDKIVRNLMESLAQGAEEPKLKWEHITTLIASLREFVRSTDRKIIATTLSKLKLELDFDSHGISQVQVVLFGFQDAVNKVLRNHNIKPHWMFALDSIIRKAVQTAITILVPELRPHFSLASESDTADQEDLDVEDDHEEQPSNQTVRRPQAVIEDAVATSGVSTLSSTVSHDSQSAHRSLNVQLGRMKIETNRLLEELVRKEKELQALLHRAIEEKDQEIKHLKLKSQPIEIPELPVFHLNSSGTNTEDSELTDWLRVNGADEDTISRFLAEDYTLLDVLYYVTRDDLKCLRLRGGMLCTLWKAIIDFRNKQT
T2 sequence (P42684 whole entry): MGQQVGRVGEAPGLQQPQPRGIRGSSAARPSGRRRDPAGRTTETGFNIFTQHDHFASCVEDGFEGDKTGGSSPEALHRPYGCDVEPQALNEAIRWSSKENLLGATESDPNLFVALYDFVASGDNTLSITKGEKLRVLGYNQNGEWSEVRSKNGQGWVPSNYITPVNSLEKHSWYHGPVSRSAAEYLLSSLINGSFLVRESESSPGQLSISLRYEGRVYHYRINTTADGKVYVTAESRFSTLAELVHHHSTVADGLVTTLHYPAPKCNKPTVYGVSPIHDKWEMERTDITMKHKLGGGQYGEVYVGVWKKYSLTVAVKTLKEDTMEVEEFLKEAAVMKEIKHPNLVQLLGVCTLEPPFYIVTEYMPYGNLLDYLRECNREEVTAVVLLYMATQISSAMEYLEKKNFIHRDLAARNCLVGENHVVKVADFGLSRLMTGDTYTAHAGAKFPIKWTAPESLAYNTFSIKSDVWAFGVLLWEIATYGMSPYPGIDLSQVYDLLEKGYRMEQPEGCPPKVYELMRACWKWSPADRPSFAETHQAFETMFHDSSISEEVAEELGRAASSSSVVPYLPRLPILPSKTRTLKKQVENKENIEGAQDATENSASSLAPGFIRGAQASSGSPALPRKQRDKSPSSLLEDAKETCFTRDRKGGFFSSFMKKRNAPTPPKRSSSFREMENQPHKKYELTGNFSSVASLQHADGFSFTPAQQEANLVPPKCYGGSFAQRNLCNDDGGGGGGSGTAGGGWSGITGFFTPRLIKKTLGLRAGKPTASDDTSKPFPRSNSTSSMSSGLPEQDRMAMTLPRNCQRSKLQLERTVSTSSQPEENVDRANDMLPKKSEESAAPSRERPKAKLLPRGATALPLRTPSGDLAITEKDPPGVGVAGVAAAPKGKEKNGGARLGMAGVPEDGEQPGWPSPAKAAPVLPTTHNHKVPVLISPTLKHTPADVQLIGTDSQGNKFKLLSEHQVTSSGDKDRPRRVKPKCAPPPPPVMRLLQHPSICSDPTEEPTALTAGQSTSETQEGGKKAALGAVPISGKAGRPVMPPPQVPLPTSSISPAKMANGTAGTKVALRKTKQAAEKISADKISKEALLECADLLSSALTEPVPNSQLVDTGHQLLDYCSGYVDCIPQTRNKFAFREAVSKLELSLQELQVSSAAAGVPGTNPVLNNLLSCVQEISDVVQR
T22 sequence (Q15131 whole entry): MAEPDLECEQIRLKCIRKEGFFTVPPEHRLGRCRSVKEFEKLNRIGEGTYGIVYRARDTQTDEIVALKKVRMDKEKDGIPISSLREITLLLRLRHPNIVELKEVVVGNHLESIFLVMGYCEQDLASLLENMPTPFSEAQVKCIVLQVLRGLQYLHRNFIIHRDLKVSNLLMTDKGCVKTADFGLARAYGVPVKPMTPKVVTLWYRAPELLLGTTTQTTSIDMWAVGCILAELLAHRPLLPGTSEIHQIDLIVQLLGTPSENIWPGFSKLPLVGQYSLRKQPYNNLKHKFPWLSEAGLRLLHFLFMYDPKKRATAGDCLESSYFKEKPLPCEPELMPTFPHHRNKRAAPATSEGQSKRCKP
T23 sequence (Q13882 whole entry): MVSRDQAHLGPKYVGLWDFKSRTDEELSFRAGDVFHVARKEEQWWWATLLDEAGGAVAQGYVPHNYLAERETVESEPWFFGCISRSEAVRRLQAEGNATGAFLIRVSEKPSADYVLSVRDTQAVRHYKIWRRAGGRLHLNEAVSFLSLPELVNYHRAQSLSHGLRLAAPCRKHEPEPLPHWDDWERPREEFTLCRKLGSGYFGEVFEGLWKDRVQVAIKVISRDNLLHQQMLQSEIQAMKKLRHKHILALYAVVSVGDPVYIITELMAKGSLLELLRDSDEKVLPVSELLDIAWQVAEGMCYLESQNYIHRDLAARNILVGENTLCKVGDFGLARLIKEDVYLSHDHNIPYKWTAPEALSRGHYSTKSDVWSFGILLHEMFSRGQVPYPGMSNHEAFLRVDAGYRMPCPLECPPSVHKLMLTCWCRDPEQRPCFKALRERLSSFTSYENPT

**Q.** What does the source list for `CCSc1nc(NC)c2c(-c3cccc(NC(=O)Nc4cc(C(C)(C)C)nn4-c4ccc(C)cc4)c3)c[nH]c2n1` [Compound 32]?
**A.** Residual activity (% of control), CAMK1D (350 wild-type kinases [1]; Assay Conc. 1.0E-05 M): 101 % of control; Residual activity (% of control), CAMK1D (350 wild-type kinases [1]; Assay Conc. 1.0E-06 M): 113 % of control; Residual activity (% of control), ABL2 (350 wild-type kinases [2]; Assay Conc. 1.0E-05 M): 73 % of control; Residual activity (% of control), ABL2 (350 wild-type kinases [2]; Assay Conc. 1.0E-06 M): 107 % of control; Residual activity (% of control), CIT 1-450 (350 wild-type kinases [3]; Assay Conc. 1.0E-05 M): 71 % of control; Residual activity (% of control), CIT 1-450 (350 wild-type kinases [3]; Assay Conc. 1.0E-06 M): 100 % of control; Residual activity (% of control), ACVRL1 (350 wild-type kinases [4]; Assay Conc. 1.0E-05 M): 80 % of control; Residual activity (% of control), ACVRL1 (350 wild-type kinases [4]; Assay Conc. 1.0E-06 M): 97 % of control; Residual activity (% of control), DCAMKL2 (350 wild-type kinases [5]; Assay Conc. 1.0E-05 M): 91 % of control; Residual activity (% of control), DCAMKL2 (350 wild-type kinases [5]; Assay Conc. 1.0E-06 M): 103 % of control; Residual activity (% of control), ACVR1 (350 wild-type kinases [6]; Assay Conc. 1.0E-05 M): 93 % of control; Residual activity (% of control), ACVR1 (350 wild-type kinases [6]; Assay Conc. 1.0E-06 M): 107 % of control; Residual activity (% of control), CDC42BPB (350 wild-type kinases [7]; Assay Conc. 1.0E-05 M): 57 % of control; Residual activity (% of control), CDC42BPB (350 wild-type kinases [7]; Assay Conc. 1.0E-06 M): 84 % of control; Residual activity (% of control), ASK1 (350 wild-type kinases [8]; Assay Conc. 1.0E-05 M): 71 % of control; Residual activity (% of control), ASK1 (350 wild-type kinases [8]; Assay Conc. 1.0E-06 M): 103 % of control; LRRK2 inhibition in the 33PanQinase screen (350 wild-type kinases [9]): not detected as a LRRK2 inhibitor; Residual activity (% of control), CLK4 (350 wild-type kinases [10]; Assay Conc. 1.0E-05 M): 43 % of control; Residual activity (% of control), CLK4 (350 wild-type kinases [10]; Assay Conc. 1.0E-06 M): 80 % of control; Residual activity (% of control), BLK (350 wild-type kinases [11]; Assay Conc. 1.0E-05 M): 55 % of control; Residual activity (% of control), BLK (350 wild-type kinases [11]; Assay Conc. 1.0E-06 M): 78 % of control; Residual activity (% of control), COT (350 wild-type kinases [12]; Assay Conc. 1.0E-05 M): 69 % of control; Residual activity (% of control), COT (350 wild-type kinases [12]; Assay Conc. 1.0E-06 M): 96 % of control; Residual activity (% of control), CDK11B/CycK (350 wild-type kinases [13]; Assay Conc. 1.0E-05 M): 99 % of control; Residual activity (% of control), CDK11B/CycK (350 wild-type kinases [13]; Assay Conc. 1.0E-06 M): 96 % of control; Residual activity (% of control), CK1alpha1 (350 wild-type kinases [14]; Assay Conc. 1.0E-05 M): 98 % of control; Residual activity (% of control), CK1alpha1 (350 wild-type kinases [14]; Assay Conc. 1.0E-06 M): 108 % of control; Residual activity (% of control), AKT1 (350 wild-type kinases [15]; Assay Conc. 1.0E-05 M): 91 % of control; Residual activity (% of control), AKT1 (350 wild-type kinases [15]; Assay Conc. 1.0E-06 M): 103 % of control; Residual activity (% of control), CAMK2D (350 wild-type kinases [16]; Assay Conc. 1.0E-05 M): 67 % of control; Residual activity (% of control), CAMK2D (350 wild-type kinases [16]; Assay Conc. 1.0E-06 M): 104 % of control; Residual activity (% of control), DNAPK (350 wild-type kinases [17]; Assay Conc. 1.0E-05 M): 82 % of control; Residual activity (% of control), DNAPK (350 wild-type kinases [17]; Assay Conc. 1.0E-06 M): 99 % of control; Residual activity (% of control), CDK9/CycK (350 wild-type kinases [18]; Assay Conc. 1.0E-05 M): 86 % of control; Residual activity (% of control), CDK9/CycK (350 wild-type kinases [18]; Assay Conc. 1.0E-06 M): 111 % of control; Residual activity (% of control), CDK9/CycT1 (350 wild-type kinases [18]; Assay Conc. 1.0E-05 M): 85 % of control; Residual activity (% of control), CDK9/CycT1 (350 wild-type kinases [18]; Assay Conc. 1.0E-06 M): 106 % of control; Residual activity (% of control), ABL1 (350 wild-type kinases [19]; Assay Conc. 1.0E-05 M): 70 % of control; Residual activity (% of control), ABL1 (350 wild-type kinases [19]; Assay Conc. 1.0E-06 M): 102 % of control; Residual activity (% of control), CDK1/CycA2 (350 wild-type kinases [20]; Assay Conc. 1.0E-05 M): 62 % of control; Residual activity (% of control), CDK1/CycA2 (350 wild-type kinases [20]; Assay Conc. 1.0E-06 M): 110 % of control; Residual activity (% of control), CDK1/CycB1 (350 wild-type kinases [20]; Assay Conc. 1.0E-05 M): 82 % of control; Residual activity (% of control), CDK1/CycB1 (350 wild-type kinases [20]; Assay Conc. 1.0E-06 M): 105 % of control; Residual activity (% of control), CDK1/CycE1 (350 wild-type kinases [20]; Assay Conc. 1.0E-05 M): 51 % of control; Residual activity (% of control), CDK1/CycE1 (350 wild-type kinases [20]; Assay Conc. 1.0E-06 M): 104 % of control; Residual activity (% of control), CDK15/CycA2 (350 wild-type kinases [21]; Assay Conc. 1.0E-05 M): 92 % of control; Residual activity (% of control), CDK15/CycA2 (350 wild-type kinases [21]; Assay Conc. 1.0E-06 M): 116 % of control; Residual activity (% of control), CDK15/CycB1 (350 wild-type kinases [21]; Assay Conc. 1.0E-05 M): 86 % of control; Residual activity (% of control), CDK15/CycB1 (350 wild-type kinases [21]; Assay Conc. 1.0E-06 M): 98 % of control; Residual activity (% of control), CDK10/CycQ (350 wild-type kinases [22]; Assay Conc. 1.0E-05 M): 71 % of control; Residual activity (% of control), CDK10/CycQ (350 wild-type kinases [22]; Assay Conc. 1.0E-06 M): 98 % of control; Residual activity (% of control), BRK (350 wild-type kinases [23]; Assay Conc. 1.0E-05 M): 79 % of control; Residual activity (% of control), BRK (350 wild-type kinases [23]; Assay Conc. 1.0E-06 M): 109 % of control
